25 compounds from PubChem BioAssay AID256 (DTP/NCI, 2004) can be followed below.

This assay deals with CD2F1 mice, L1210 leukemia ip, survival T/C. Put plainly: NCI In Vivo Anticancer Drug Screen. Data for tumor model L1210 Leukemia (intraperitoneal) in CD2F1 (CDF1) mice. As to conditions: higher = longer survival. In a few lines: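 Antitumor effect is scored in animals hosting a serially transplanted tumor. Values compare compound-dosed animals against vehicle-only controls as a simple quotient.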

Setting [1] is: endpoint: mean survival time, dose: 100.0 mg/kg/injection, schedule: Q01DX001 (ip), vehicle: saline with Tween-80.
Setting [2] is: endpoint: mean survival time, dose: 400.0 mg/kg/injection, schedule: Q01DX001 (ip), vehicle: saline with Tween-80.
The mark [3] stands for this setting: endpoint: mean survival time, dose: 100.0 mg/kg/injection, schedule: Q04DX003 (ip), vehicle: saline.
[4] abbreviates: endpoint: mean survival time, dose: 200.0 mg/kg/injection, schedule: Q04DX003 (ip), vehicle: saline.
Setting [5] is: endpoint: mean survival time, dose: 400.0 mg/kg/injection, schedule: Q04DX003 (ip), vehicle: saline.
Setting [6] is: endpoint: mean survival time, dose: 100.0 mg/kg/injection, schedule: Q01DX001 (ip), vehicle: saline.
[7] abbreviates: endpoint: mean survival time, dose: 200.0 mg/kg/injection, schedule: Q01DX001 (ip), vehicle: saline.
Where [8] appears, read: endpoint: mean survival time, dose: 400.0 mg/kg/injection, schedule: Q01DX001 (ip), vehicle: saline.
Setting [9] is: endpoint: mean survival time, dose: 25.0 mg/kg/injection, schedule: Q01DX009 (ip), vehicle: saline with Tween-80.
The mark [10] stands for this setting: endpoint: mean survival time, dose: 50.0 mg/kg/injection, schedule: Q01DX009 (ip), vehicle: saline with Tween-80.
Setting [11] is: endpoint: mean survival time, dose: 100.0 mg/kg/injection, schedule: Q01DX009 (ip), vehicle: saline.
[12] abbreviates: endpoint: mean survival time, dose: 200.0 mg/kg/injection, schedule: Q01DX009 (ip), vehicle: saline.
[13] abbreviates: endpoint: mean survival time, dose: 400.0 mg/kg/injection, schedule: Q01DX009 (ip), vehicle: saline.
[14] abbreviates: endpoint: mean survival time, dose: 100.0 mg/kg/injection, schedule: Q01DX009 (ip), vehicle: saline with Tween-80.
[15] abbreviates: endpoint: mean survival time, dose: 200.0 mg/kg/injection, schedule: Q01DX009 (ip), vehicle: saline with Tween-80.
Setting [16] is: endpoint: mean survival time, dose: 400.0 mg/kg/injection, schedule: Q01DX009 (ip), vehicle: saline with Tween-80.

Where “and” joins values, the source holds several entries; their conditions need not be identical. Equal values may be shown once. Toxic doses and inconclusive results are not listed.

For `NC(=O)C(CC(=O)OCc1ccccc1)NC(=O)OCc1ccccc1` (stereo not drawn), the T/C by setting is: (endpoint: mean survival time, dose: 100.0 mg/kg/injection, schedule: Q04DX003 (ip), vehicle: saline + alcohol) 97 % of control; (endpoint: mean survival time, dose: 200.0 mg/kg/injection, schedule: Q04DX003 (ip), vehicle: saline + alcohol) 97 % of control; (endpoint: mean survival time, dose: 400.0 mg/kg/injection, schedule: Q04DX003 (ip), vehicle: saline + alcohol) 97 % of control.
In the case of `CCCCOC(=O)COc1ccc(F)cc1`, the T/C by setting is: (endpoint: mean survival time, dose: 100.0 mg/kg/injection, schedule: Q04DX002 (ip), vehicle: saline with Tween-80) 94 % of control; (endpoint: mean survival time, dose: 200.0 mg/kg/injection, schedule: Q04DX002 (ip), vehicle: saline with Tween-80) 94 % of control; (endpoint: mean survival time, dose: 400.0 mg/kg/injection, schedule: Q04DX002 (ip), vehicle: saline with Tween-80) 94 % of control.
On to `OC1C=C(c2ccccc2)C(c2ccccc2)C(c2ccccc2)C1` (stereo not drawn), for which the T/C was 89 % of control under setting [1] and 101 % of control under setting [2].
For `CN(C)CC(O)c1ccc(O)c(O)c1` (stereo not drawn), the T/C under setting [3] is 115 % of control, the T/C under setting [4] is 115 % of control and the T/C under setting [5] is 103 % of control.
`CC1NC(C)SC(C)S1` (stereo not drawn): the T/C is, setting by setting: (endpoint: mean survival time, dose: 100.0 mg/kg/injection, schedule: Q04DX003 (ip), vehicle: saline with Tween-80) 101 % of control; (endpoint: mean survival time, dose: 200.0 mg/kg/injection, schedule: Q04DX003 (ip), vehicle: saline with Tween-80) 98 % of control.
Take `O=C(Cc1ccc([N+](=O)[O-])cc1)Nc1ccc(S(=O)(=O)F)cc1`: the T/C reads like this: under setting [6], 96 % of control; under setting [7], 103 % of control; under setting [8], 100 % of control.
Consider `Nc1ccc(C(=O)O)cc1`, for which the T/C is 95 % of control under setting [1]; 100 % of control (endpoint: mean survival time, dose: 200.0 mg/kg/injection, schedule: Q01DX001 (ip), vehicle: saline with Tween-80); 101 % of control under setting [2].
With `COc1ccc(C(=O)c2ccc(OC)cc2)cc1`, the T/C is, setting by setting: (endpoint: mean survival time, dose: 50.0 mg/kg/injection, schedule: Q01DX009 (ip), vehicle: Klucel (hydroxypropylcellulose) (HPC)) 100 % of control; (endpoint: mean survival time, dose: 100.0 mg/kg/injection, schedule: Q01DX009 (ip), vehicle: Klucel (hydroxypropylcellulose) (HPC)) 93 % of control; (endpoint: mean survival time, dose: 200.0 mg/kg/injection, schedule: Q01DX009 (ip), vehicle: Klucel (hydroxypropylcellulose) (HPC)) 86 % of control.
Consider `CC(C)(C)CC(C)(C)Nc1nc(NC(C)(C)CC(C)(C)C)nc(NC(C)(C)CC(C)(C)C)n1`, for which the T/C runs as follows: (endpoint: mean survival time, dose: 12.5 mg/kg/injection, schedule: Q01DX009 (ip), vehicle: saline with Tween-80) 101 % of control; under setting [9], 95 % of control; under setting [10], 97 % of control.
On to `O=C(O)CCCCc1ccc([N+](=O)[O-])cc1`, for which the T/C is, setting by setting: (endpoint: mean survival time, dose: 100.0 mg/kg/injection, schedule: Q04DX002 (ip), vehicle: other) 105 % of control; (endpoint: mean survival time, dose: 200.0 mg/kg/injection, schedule: Q04DX002 (ip), vehicle: other) 102 % of control; (endpoint: mean survival time, dose: 400.0 mg/kg/injection, schedule: Q04DX002 (ip), vehicle: other) 97 % of control.
Regarding `CCCCOc1nc(-c2ccncc2)nc(N(C)C)n1`, the T/C (endpoint: mean survival time, dose: 16.0 mg/kg/injection, schedule: Q04DX002 (ip), vehicle: saline) is 92 % of control; the T/C (endpoint: mean survival time, dose: 31.0 mg/kg/injection, schedule: Q04DX002 (ip), vehicle: saline) was 92 % of control; the T/C (endpoint: mean survival time, dose: 63.0 mg/kg/injection, schedule: Q04DX002 (ip), vehicle: saline) was 100 % of control; the T/C (endpoint: mean survival time, dose: 100.0 mg/kg/injection, schedule: Q01DX002 (ip), vehicle: saline) was 100 % of control.
In the case of `O=S(=O)(O)c1cc2cc(S(=O)(=O)O)c(O)cc2cc1O.[NH-]C1CCCCC1[NH-].[Pt+2]`, the T/C was 114 % of control and 118 % of control (endpoint: median survival time, dose: 3.12 mg/kg/injection, schedule: Q04DX003 (ip), vehicle: saline); 118 % of control and 110 % of control (endpoint: median survival time, dose: 6.25 mg/kg/injection, schedule: Q04DX003 (ip), vehicle: saline); 113 % of control and 112 % of control (endpoint: median survival time, dose: 12.5 mg/kg/injection, schedule: Q04DX003 (ip), vehicle: saline); 158 % of control (endpoint: median survival time, dose: 50.0 mg/kg/injection, schedule: Q04DX003 (ip), vehicle: saline); 154 % of control and 207 % of control (endpoint: median survival time, dose: 100.0 mg/kg/injection, schedule: Q04DX003 (ip), vehicle: saline); 229 % of control and 365 % of control (endpoint: median survival time, dose: 200.0 mg/kg/injection, schedule: Q04DX003 (ip), vehicle: saline).
Take `CCOC(=O)NCCCNC(=O)OCC`: the T/C runs as follows: under setting [11], 104 % of control; under setting [12], 95 % of control; under setting [13], 93 % of control.
On to `O=C(NCCCl)Nc1cc(Cl)cc(Cl)c1`, for which the T/C by setting is: under setting [9], 97 % of control; under setting [10], 100 % of control; under setting [14], 88 % of control and 96 % of control.
Take `CN(C)/C=N/NC(=O)C(O)c1ccccc1` (stereo not drawn): the T/C is 102 % of control under setting [14], 102 % of control under setting [15] and 100 % of control under setting [16].
With `CC1(C)CC(Br)(Cc2ccccc2)C(=O)c2ccccc21` (stereo not drawn), the T/C is 95 % of control under setting [14], 94 % of control under setting [15] and 94 % of control under setting [16].
Take `Nc1nc(-c2ccccc2)c(CCCNc2ccc(C(=O)NC(CCC(=O)O)C(=O)O)cc2)c(=O)[nH]1` (stereo not drawn): the T/C under setting [11] is 94 % of control and the T/C under setting [12] is 96 % of control.
Turning to `COC1CC2C[CH]([Hg][Cl])C1C2` (stereo not drawn), the T/C runs as follows: (endpoint: mean survival time, dose: 0.75 mg/kg/injection, schedule: Q01DX009 (ip), vehicle: saline) 106 % of control; (endpoint: mean survival time, dose: 1.5 mg/kg/injection, schedule: Q01DX009 (ip), vehicle: saline) 106 % of control; (endpoint: mean survival time, dose: 3.0 mg/kg/injection, schedule: Q01DX009 (ip), vehicle: saline) 103 % of control; (endpoint: mean survival time, dose: 3.13 mg/kg/injection, schedule: Q01DX009 (ip), vehicle: saline with Tween-80) 97 % of control; (endpoint: mean survival time, dose: 6.25 mg/kg/injection, schedule: Q01DX009 (ip), vehicle: saline with Tween-80) 103 % of control.
`CC(C)C(C)/C=C/CC(C)C1CCC2C1(C)CCCC21C2CC3=C(CC(OC(=O)NC(N)=O)CC3)C21` (stereo not drawn): the T/C is, setting by setting: under setting [14], 95 % of control; under setting [15], 104 % of control; under setting [16], 87 % of control.
On the same counts, the results for `O=C1CC(c2ccccc2)C(c2ccccc2)=C1Cl` (stereo not drawn) are 94 % of control, 98 % of control and 96 % of control.
In the case of `O=C(C[n+]1cc(Br)cc2ccccc21)c1ccc(O)c(O)c1`, the T/C runs as follows: under setting [11], 110 % of control; under setting [12], 111 % of control; under setting [13], 102 % of control.
Turning to `C/C(=C\Br)CO`, the T/C is 100 % of control (endpoint: mean survival time, dose: 50.0 mg/kg/injection, schedule: Q01DX009 (ip), vehicle: acetone); 96 % of control (endpoint: mean survival time, dose: 100.0 mg/kg/injection, schedule: Q01DX009 (ip), vehicle: acetone); 96 % of control (endpoint: mean survival time, dose: 200.0 mg/kg/injection, schedule: Q01DX009 (ip), vehicle: acetone).
On to `O=S(=O)(/C=C\c1ccccc1)Oc1ccccc1`, for which the T/C reads like this: under setting [6], 100 % of control; under setting [3], 96 % of control; under setting [7], 100 % of control; under setting [4], 95 % of control; under setting [8], 93 % of control; under setting [5], 90 % of control.
For the compound `N=Cc1ccccc1`, the T/C was 99 % of control (endpoint: mean survival time, dose: 100.0 mg/kg/injection, schedule: Q01DX001 (ip), vehicle: Klucel (hydroxypropylcellulose) (HPC)); 96 % of control (endpoint: mean survival time, dose: 200.0 mg/kg/injection, schedule: Q01DX001 (ip), vehicle: Klucel (hydroxypropylcellulose) (HPC)); 105 % of control (endpoint: mean survival time, dose: 400.0 mg/kg/injection, schedule: Q01DX001 (ip), vehicle: Klucel (hydroxypropylcellulose) (HPC)).
On to `COC1=CC23CCCN2CCc2cc4c(cc2C3C1O)OCO4` (stereo not drawn), for which the T/C was 97 % of control (endpoint: mean survival time, dose: 12.5 mg/kg/injection, schedule: Q01DX009 (ip), vehicle: water); 101 % of control (endpoint: mean survival time, dose: 25.0 mg/kg/injection, schedule: Q01DX009 (ip), vehicle: water); 100 % of control (endpoint: mean survival time, dose: 50.0 mg/kg/injection, schedule: Q01DX009 (ip), vehicle: water); 95 % of control (endpoint: mean survival time, dose: 100.0 mg/kg/injection, schedule: Q01DX009 (ip), vehicle: water); 97 % of control (endpoint: mean survival time, dose: 200.0 mg/kg/injection, schedule: Q01DX009 (ip), vehicle: water).
